Data as given in PMC4727972, “Chronic unpredicted mild stress-induced depression alter saxagliptin pharmacokinetics and CYP450 activity in GK rats” (PeerJ, 2016).
Where two headings read alike, the source gives them in different places.

Legend:
[1] = design: method as in Fura et al., 2009; settings: rats; ref Fura et al., 2009; cited from earlier work
[2] = Pharmacokinetics of Sax in plasma after oral 0.5 mg/kg (HPLC-MS/MS, noncompartmental analysis); format: in vivo, GK rats; settings: for AUC(0-inf) / Cmax / Tmax / MRT last / half-life / Vd/F: plasma, po; for AUC(0-inf) / Cmax / Tmax / MRT last / half-life / Vd/F / CLz/F: n = 9, mean ± SD; for MRT last: read-out: MRT0−t; for half-life: read-out: T1/2z (converted); for Vd/F: read-out: Vz/F
Procedure: All rats were fasted overnight but with free access to water. 0.5 mg/kg Sax (suspended in 5 g/L Carboxymethyl cellulose-Na) was given orally. Blood samples were collected by eye canthus at 0.17, 0.33, 0.5, 0.83, 1.17, 1.5, 2, 3, 5, 8 h. Then plasma samples were centrifuged to obtain plasma at 3,000 × g for 5 min. The samples were stored at −80 °C for analysis.
The Sax concentration was assayed by the HPLC-tandem mass spectrometry (MS/MS) method ([Gao et al., 2012]). A total of 100 µL plasma sample and 10 µL Sit (100 ng/mL) was added with 1.2 mL ethyl acetate in a centrifuge tube, vortex-mixed for 2 min and centrifuged at 10,000 × g for 3 min. The supernatant was evaporated to dry. The residue was re-dissolved with 100 µL methanol via vortex-mixed for 1 min and centrifuged at 16,000 × g for 1 min. 2.0 µL of the supernatant was injected into the HPLC-MS/MS system for analysis.
The HPLC equipped with a reverse-phase column was connected to a triple quadrupole tandem MS with an electrospray interface. The system consists of the LC system (Agilent 1260, Agilent, US) with a G1322A degasser, a G1318B auto-modifiable pump, a G1367E auto-sampler, a G1316A adjustable column temperature box, and the Agilent 6420 MS system. Chromatographic separation was achieved using a ZORBAX EP-C18 column (2.1 mm × 50 mm, 1.8 µm, Agilent). The mobile phase contained 35% methanol and 65% water (0.1% ammonium formate) with a flow rate 0.4 mL/min. The optimized conditions of MS were as follows: positive electrospray ionization (ESI^+) mode, capillary at 4,000 V, ion-spray gas temperature at 350 °C, gas flow rate at 11 L/min, and nebulizer at 15 psi. The parameters of Sax and Sit were as follows: fragmentary voltage at 110 V and 130 V, collision energy at 22 units and 18 units, respectively. The multiple-reaction monitoring mode was selected for quantifying of Sax and Sit, for which the precursor-to-product ion transitions were 316.1 → 179.9 and 407.9 → 234.9, respectively. The MassHunter Workstation software (Version B.06.00, Agilent) was used to collect and process data.
Statistical analysis and pharmacokinetics parameter analysis were performed with SPSS 16.0 (SPSS Inc., Chicago, IL, USA) and DAS 2.1 software (Drug and Statistics, Shanghai University of Traditional Chinese Medicine, Shanghai, China). Differences between the two groups were analyzed via independent-samples t Test. Data was expressed as mean ± standard deviation (SD). p < 0.05 was considered statistically significant.

liver microsomal enzyme = experiment: Metabolism of Sax using liver microsomal enzyme in vitro; format: in vitro ADME, GK rats; settings: decreased from 0.50 mg/mL
Procedure: The control and CUMS-induced rats were fasted for 12 h and killed by cervical dislocation before removal of the liver. The liver was excised, rinsed with ice-cold normal saline (0.9% NaCl, w/v), weighed for 1 g, and homogenized with 4.0 mL in a 0.05M Tris–HCl buffer (pH 7.4). The homogenate was centrifuged at 10,000 × g at 4 °C for 20 min, and the supernatant was further centrifuged at 105,000 × g at 4 °C for 60 min. The helvus sediment was reconstituted with 1.0 mL Tris–HCl buffer and stored at −80 °C for analysis.
The incubation mixtures (final volume: 500 µL) contained 1 mg/mL microsomal protein, 0.1 M phosphate buffer (PH = 7.4), 1 mM nicotinamide adenine dinucleotide phosphate (NADPH), probe drugs (1 mg/mL Phe, Ven, Nif). A total of 100 µL microsomal protein and 100 µL probe drugs were added with 250 µL phosphate buffer in a brown centrifuge tube, vortex-mixed for 1 min, and incubated at 37 °C water. After 5 min pre-incubation, the reactions were initiated by the addition of 50 µL NADPH. The incubations were performed at 37 °C for 20 min in a water bath and terminated by adding 1.4 mL cold ethyl acetate and 20 µL Lor (5 µg/mL). […]
It is well known that Sax is mainly metabolized by cytochrome 3A enzyme in the liver. […] Considering of the complicacy of metabolic system in vivo, we detected metabolism of Sax using liver microsomal enzyme in vitro with cocktails method. […]

[3] = GK, rat, 0.5 mg/kg, control group (diabetic GK rats), 0.5 mg/kg oral
[4] = GK, rat, 0.5 mg/kg, depression group (CUMS-induced, GK rats), 0.5 mg/kg oral
[5] = depression group vs control group, 0.5 mg/kg oral, p < 0.05

concentration at 5 h ([2]; GK, rat, 0.5 mg/kg, single plasma sample at 5 h after oral Sax (chromatogram, Fig. 3C), group not stated): 3.05 ng/mL | AUC(0-inf) [2, 3]: 67.1 ± 14.1 ng·h/mL | Cmax [2, 3]: 20.5 ± 4.61 ng/mL | Tmax [2, 3]: 1.46 ± 0.38 h | MRT last [2, 3]: 2.55 ± 0.32 h | half-life [2, 3]: 1.73 ± 0.43 h | Vd/F [2, 3]: 21 ± 8.22 L | AUC(0-inf) [2, 4]: 44.6 ± 15.5 ng·h/mL | Cmax [2, 4]: 14.8 ± 6.03 ng/mL | Tmax [2, 4]: 1.04 ± 0.25 h | MRT last [2, 4]: 1.95 ± 0.57 h | half-life [2, 4]: 1.58 ± 0.59 h | Vd/F [2, 4]: 29.8 ± 14.2 L | CLz/F ([2]; control group (diabetic GK rats), 0.5 mg/kg oral): 7.35 ± 1.34 L/h | CLz/F ([2]; depression group (CUMS-induced, GK rats), 0.5 mg/kg oral): 13.05 ± 6.30 L/h | decrease of area under curve (AUC0−∞) in the depression group [2, 5]: 33% | decrease of mean residence time (MRT0−t) in the depression group [2, 5]: 24% | decrease of peak concentration (Cmax) in the depression group [2, 5]: 27% | decrease of peak time (Tmax) in the depression group [2, 5]: 29% | concentration of Sax after incubation with liver microsomal enzyme (liver microsomal enzyme; control group microsomes): 350000 ng/mL | concentration of Sax after incubation with liver microsomal enzyme (liver microsomal enzyme; depression group microsomes): 150000 ng/mL
Compound: N#C[C@@H]1C[C@@H]2C[C@@H]2N1C(=O)[C@@H](N)C12CC3CC(CC(O)(C3)C1)C2 [Sax, (S)-3-hydroxyadamantylglycine-L-cis-4,5-methanoprolinenitrile]
oral bioavailability [1]: good oral bioavailability
